Source: PMC6104635 (ACS chemical neuroscience, 2018)

Columns and labels:
Format in all cases: cell-based
human M1 = target: T1, human M1 (Homo sapiens, UniProt P11229); experiment: mAChR selectivity, PAM activity at human M1
T1 sequence (P11229 1-460): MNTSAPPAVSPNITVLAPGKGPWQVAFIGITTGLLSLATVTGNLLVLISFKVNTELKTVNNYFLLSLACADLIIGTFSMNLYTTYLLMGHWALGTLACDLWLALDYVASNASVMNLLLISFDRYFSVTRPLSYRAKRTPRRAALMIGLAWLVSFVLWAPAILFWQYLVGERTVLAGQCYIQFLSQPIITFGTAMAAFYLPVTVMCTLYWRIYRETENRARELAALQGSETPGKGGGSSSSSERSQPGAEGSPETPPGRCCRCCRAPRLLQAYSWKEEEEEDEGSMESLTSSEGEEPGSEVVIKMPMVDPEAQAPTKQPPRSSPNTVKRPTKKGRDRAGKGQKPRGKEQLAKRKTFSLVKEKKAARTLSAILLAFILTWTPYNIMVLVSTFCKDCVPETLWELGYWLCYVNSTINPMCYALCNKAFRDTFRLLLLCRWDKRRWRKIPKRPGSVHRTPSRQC

human M4 = target: T2, human M4 (Homo sapiens, UniProt P08173); experiment: mAChR selectivity, PAM activity at human M4; settings: result in words
T2 sequence (P08173 1-479): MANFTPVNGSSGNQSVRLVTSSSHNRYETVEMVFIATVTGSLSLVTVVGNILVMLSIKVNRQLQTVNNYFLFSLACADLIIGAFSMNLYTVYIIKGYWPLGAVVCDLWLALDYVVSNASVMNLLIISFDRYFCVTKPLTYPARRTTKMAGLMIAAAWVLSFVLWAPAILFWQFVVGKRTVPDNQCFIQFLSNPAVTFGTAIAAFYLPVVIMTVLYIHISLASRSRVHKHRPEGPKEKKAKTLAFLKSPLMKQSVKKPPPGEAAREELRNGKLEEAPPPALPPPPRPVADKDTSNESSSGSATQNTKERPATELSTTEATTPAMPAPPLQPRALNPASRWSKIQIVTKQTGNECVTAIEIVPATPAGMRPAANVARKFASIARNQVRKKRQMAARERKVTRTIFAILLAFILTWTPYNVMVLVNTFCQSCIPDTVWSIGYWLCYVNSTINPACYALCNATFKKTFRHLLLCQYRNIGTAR

rat M3 = rat M3 (Rattus norvegicus, UniProt P08483); experiment: mAChR selectivity, PAM activity at rat M3
rat M3, sequence (P08483 whole entry): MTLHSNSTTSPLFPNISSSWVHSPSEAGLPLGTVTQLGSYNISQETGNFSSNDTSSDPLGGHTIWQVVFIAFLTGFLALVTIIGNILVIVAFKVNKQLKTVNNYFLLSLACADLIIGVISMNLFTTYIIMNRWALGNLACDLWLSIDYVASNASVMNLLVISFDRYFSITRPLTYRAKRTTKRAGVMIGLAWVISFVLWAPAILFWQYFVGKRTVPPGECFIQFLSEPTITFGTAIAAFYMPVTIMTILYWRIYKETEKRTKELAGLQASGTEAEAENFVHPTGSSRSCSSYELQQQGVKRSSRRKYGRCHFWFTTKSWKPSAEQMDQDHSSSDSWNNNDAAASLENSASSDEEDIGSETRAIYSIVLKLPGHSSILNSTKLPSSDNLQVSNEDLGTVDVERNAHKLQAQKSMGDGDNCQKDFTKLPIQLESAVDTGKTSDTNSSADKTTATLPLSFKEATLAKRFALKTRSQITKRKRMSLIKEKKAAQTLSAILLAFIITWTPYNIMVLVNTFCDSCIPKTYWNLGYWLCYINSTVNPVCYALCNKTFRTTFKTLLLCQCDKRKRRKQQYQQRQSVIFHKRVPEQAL

human M2 = target: T3, human M2 (Homo sapiens, UniProt P08172); experiment: mAChR selectivity, PAM activity at human M2; settings: result in words
T3 sequence (P08172 1-466): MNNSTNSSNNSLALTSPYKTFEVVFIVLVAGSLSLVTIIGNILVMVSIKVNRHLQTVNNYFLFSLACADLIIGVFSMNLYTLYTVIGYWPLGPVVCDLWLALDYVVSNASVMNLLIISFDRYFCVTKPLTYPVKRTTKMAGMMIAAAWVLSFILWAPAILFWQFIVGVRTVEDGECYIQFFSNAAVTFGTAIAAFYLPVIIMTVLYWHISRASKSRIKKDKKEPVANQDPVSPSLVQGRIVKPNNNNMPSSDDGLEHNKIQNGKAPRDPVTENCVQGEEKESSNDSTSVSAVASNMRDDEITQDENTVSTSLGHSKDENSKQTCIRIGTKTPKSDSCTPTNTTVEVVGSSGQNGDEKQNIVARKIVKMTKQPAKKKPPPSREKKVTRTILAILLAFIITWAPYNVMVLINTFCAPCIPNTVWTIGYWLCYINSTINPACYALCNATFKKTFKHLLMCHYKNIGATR

human M3 = human M3 (Homo sapiens, UniProt P20309); experiment: mAChR selectivity, PAM activity at human M3
human M3, sequence (P20309 whole entry): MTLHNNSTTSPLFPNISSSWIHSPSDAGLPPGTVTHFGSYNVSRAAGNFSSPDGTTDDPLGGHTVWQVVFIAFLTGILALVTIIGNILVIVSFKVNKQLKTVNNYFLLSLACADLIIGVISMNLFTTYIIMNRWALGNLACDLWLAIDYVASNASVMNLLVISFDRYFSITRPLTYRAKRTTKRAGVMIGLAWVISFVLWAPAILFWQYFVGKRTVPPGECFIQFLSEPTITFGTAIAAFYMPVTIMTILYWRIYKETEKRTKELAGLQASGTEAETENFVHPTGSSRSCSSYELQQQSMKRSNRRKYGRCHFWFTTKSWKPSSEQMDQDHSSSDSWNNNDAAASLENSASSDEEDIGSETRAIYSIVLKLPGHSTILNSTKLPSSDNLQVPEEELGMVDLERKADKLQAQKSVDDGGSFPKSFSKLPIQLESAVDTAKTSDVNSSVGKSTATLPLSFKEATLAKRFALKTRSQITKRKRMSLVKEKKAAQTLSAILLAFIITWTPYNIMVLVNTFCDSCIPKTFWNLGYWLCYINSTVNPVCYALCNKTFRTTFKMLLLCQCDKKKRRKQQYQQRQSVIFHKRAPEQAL

CCCN(C(=O)C1CCN(S(=O)(=O)c2ccc3[nH]ncc3c2)CC1)[C@@H]1CCc2c(F)cccc21 [Compound 18g]
selectivity for M5 versus M1 (human M1; M5-preferring PAM): 20 fold | human M1 % ACh Max (human M1; PAM activity): 67 % ACh Max | EC50 (human M1; read-out: human M1 EC50, PAM activity): 1030 nM | human M4 PAM activity (human M4): inactive | rat M3 % ACh Max (rat M3): 51 % ACh Max | EC50 (rat M3; read-out: rat M3 EC50): 772 nM | human M2 PAM activity (human M2): inactive | selectivity for M5 versus M3 (human M3; M5-preferring PAM): 10 fold | human M3 % ACh Max (human M3; PAM activity): 71 % ACh Max | EC50 (human M3; read-out: human M3 EC50, PAM activity): 466 nM
